Test results: ChEMBL document CHEMBL3044907, “Sensitivity of Fusarium verticillioides isolates from rice to a novel cyanoacrylate fungicide” (Crop Prot, 2012)
≈ marks a conversion by molar mass, not a printed value.

Columns and labels:
[1] = system: Fusarium verticillioides; assay: (§1) Fungicidal activity against Fusarium verticilliodes isolate JS07 in rice seeds harvested from bakane diseased plants assessed as number of seedlings abnormally elongated or exhibiting symptoms of damping-off at 8.33 ug/ml at 30 degC incubated for 72 hr measured after 3 days under greenhouse trials (reference value: 33.8%); format: functional
[2] = system: Oryza sativa; assay: Effect on emergence of healthy Oryza sativa (rice) seedlings measured after seeds germinated; format: ADME, organism-based; details: in vivo
[3] = system: Fusarium verticillioides; assay: as §1, with “N04” for “JS07”, “12.5” for “8.33”, “14.5%)” for “33.8%)”; format: functional
[4] = system: Fusarium verticillioides; assay: as §1, with “N03” for “JS07”, “36.1%)” for “33.8%)”; format: functional
[5] = system: Fusarium verticillioides; assay: as §1, with “YZ09” for “JS07”, “12.5” for “8.33”, “17.5%)” for “33.8%)”; format: functional
[6] = system: Fusarium verticillioides; assay: as §1, with “YZ13” for “JS07”, “26.8%)” for “33.8%)”; format: functional
[7] = system: Fusarium verticillioides; assay: as §1, with “JS09” for “JS07”, “12.5” for “8.33”, “32.6%)” for “33.8%)”; format: functional
[8] = system: Fusarium verticillioides; assay: as §1, with “JS05” for “JS07”, “25” for “8.33”, “36.4%)” for “33.8%)”; format: functional
[9] = system: Fusarium verticillioides; assay: as §1, with “YZ07” for “JS07”, “43.2%)” for “33.8%)”; format: functional
[10] = system: Fusarium verticillioides; assay: as §1, with “YZ05” for “JS07”, “33.3%)” for “33.8%)”; format: functional
[11] = system: Fusarium verticillioides; assay: as §1, with “JS03” for “JS07”, “15.8%)” for “33.8%)”; format: functional
[12] = system: Fusarium verticillioides; assay: as §1, with “N03” for “JS07”, “12.5” for “8.33”, “36.1%)” for “33.8%)”; format: functional
[13] = system: Fusarium verticillioides; assay: as §1, with “JS09” for “JS07”, “6.25” for “8.33”, “32.6%)” for “33.8%)”; format: functional
[14] = system: Fusarium verticillioides; assay: as §1, with “YZ04” for “JS07”, “44.2%)” for “33.8%)”; format: functional
[15] = system: Fusarium verticillioides; assay: as §1, with “YZ26” for “JS07”, “12.5” for “8.33”, “49.3%)” for “33.8%)”; format: functional
[16] = system: Oryza sativa; assay: Effect on germination of healthy Oryza sativa (rice) seed cultivar Xinliangyou 6 at 6.25 to 25 ug/ml at 25 degC after 72 hr; format: ADME, organism-based; details: in vivo
[17] = system: Fusarium verticillioides; assay: as §1, with “YZ01” for “JS07”, “12.5” for “8.33”, “33.6%)” for “33.8%)”; format: functional
[18] = system: Fusarium verticillioides; assay: as §1, with “N01” for “JS07”, “25” for “8.33”, “27.4%)” for “33.8%)”; format: functional
[19] = system: Fusarium verticillioides; assay: as §1, with “YZ10” for “JS07”, “49.2%)” for “33.8%)”; format: functional
[20] = system: Fusarium verticillioides; assay: as §1, with “6.25” for “8.33”; format: functional
[21] = system: Fusarium verticillioides; assay: as §1, with “YZ22” for “JS07”, “25” for “8.33”, “22.5%)” for “33.8%)”; format: functional
[22] = system: Fusarium verticillioides; assay: as §1, with “N05” for “JS07”, “12.5” for “8.33”, “6.2%)” for “33.8%)”; format: functional
[23] = system: Fusarium verticillioides; assay: as §1, with “YZ08” for “JS07”, “12.5” for “8.33”, “19.8%)” for “33.8%)”; format: functional
[24] = system: Fusarium verticillioides; assay: as §1, with “YZ22” for “JS07”, “6.25” for “8.33”, “22.5%)” for “33.8%)”; format: functional
[25] = system: Fusarium verticillioides; assay: as §1, with “YZ08” for “JS07”, “19.8%)” for “33.8%)”; format: functional
[26] = system: Oryza sativa; assay: Effect on germination of healthy Oryza sativa (rice) seed cultivar Liangyou 6326 at 6.25 to 25 ug/ml at 25 degC after 72 hr; format: ADME, organism-based; details: in vivo
[27] = system: Fusarium verticillioides; assay: as §1, with “JS02” for “JS07”, “25” for “8.33”, “24.9%)” for “33.8%)”; format: functional
[28] = system: Fusarium verticillioides; assay: Fungicidal activity against Fusarium verticilliodes assessed as mycelial growth inhibition at 25 degC after 3 to 5 days; format: functional, organism-based
[29] = system: Fusarium verticillioides; assay: as §1, with “YZ06” for “JS07”, “6.25” for “8.33”, “45.3%)” for “33.8%)”; format: functional
[30] = system: Fusarium verticillioides; assay: as §1, with “JS05” for “JS07”, “36.4%)” for “33.8%)”; format: functional
[31] = system: Fusarium verticillioides; assay: as §1, with “YZ07” for “JS07”, “25” for “8.33”, “43.2%)” for “33.8%)”; format: functional
[32] = system: Fusarium verticillioides; assay: as §1, with “YZ11” for “JS07”, “25” for “8.33”, “33.7%)” for “33.8%)”; format: functional
[33] = system: Fusarium verticillioides; assay: as §1, with “YZ11” for “JS07”, “12.5” for “8.33”, “33.7%)” for “33.8%)”; format: functional

CCOC(=O)/C(C#N)=C(/N)c1ccccc1
Activity [1]: 0%
Activity [2]: Non-toxic
Activity [3]: 0%
Activity [4]: 0%
Activity [5]: 0%
Activity [6]: 0%
Activity [7]: 0%
Activity [8]: 0%
Activity [9]: 0%
Activity [10]: 0%
Activity [11]: 0%
Activity [12]: 0%
Activity [13]: 4.2%
Activity [14]: 0%
Activity [15]: 0%
Activity [16]: Non-toxic
Activity [17]: 0%
Activity [18]: 0%
Activity [19]: 0%
Activity [20]: 1.3%
Activity [21]: 0%
Activity [22]: 0%
Activity [23]: 0%
Activity [24]: 2.7%
Activity [25]: 0%
Activity [26]: Non-toxic
Activity [27]: 0%
EC50 [28]: 0.316 µg/mL (≈ 1.46 µM)
Activity [29]: 1%
Activity [30]: 0.2%
Activity [31]: 0%
Activity [32]: 0%
Activity [33]: 0%
